US20210275646A1, “PHARMACOLOGIC TREATMENT FOR RIGHT VENTRICULAR FAILURE” (The Trustees of Columbia University in the City of New York, priority 2018, published 2021)

Legend:
Format in all cases: cell-based
[1] = system: neonatal rat ventricular myocytes (NRVMs); assay: LC3-II/I ratio (Western) in NRVMs treated with bafilomycin A or chloroquine, canonical versus non-canonical autophagy; conditions: BafA 100 nM, 1 h; si-Wipi1 and si-scramble transfected NRVMs
[2] = system: neonatal rat ventricular myocytes (NRVMs); assay: MitoSOX Red analysis of mitochondrial superoxide level; conditions: Aldo 1 μM 48 h, si-scramble control NRVMs
Description: Neonatal rat ventricular myocytes (NRVMs) were transfected with scramble or Wipi1-specific siRNAs and then stimulated with aldosterone (Aldo, 1 μM, 48 h) or hydrogen peroxide (H2O2, 50 μM, 2 h).
(§1) At 24 h following isolation, NRVMs were transfected with siRNAs using the Dharmafect #1 transfection reagent according to the manufacturers protocol (Dharmacon). NRVMs were plated at a density of ˜10^5 cells/cm^2 and transfected with 10 nM of a pool of either non-targeting siRNA (siRNA-scramble control) or siRNAs against the rat Wipi1 gene (siRNA-Wipi1). All siRNAs were ON-TARGETplus SMARTpool siRNAs (Dharmacon). Following a 24 h transfection period, the medium was changed to serum-free DMEM:F12 supplemented with penicillin (100 units/ml)/streptomycin (100 μg/ml). After ˜12 h of serum-starvation, the cells were incubated with aldosterone (250 μg/ml) in serum-free DMEM:F12 culture medium for 48 h at 37° C., 5% Ca. Serum-free DMEM:F12 culture medium without any aldosterone was used as a comparative control to neurohormone activation.
Mitochondrial superoxide level was monitored with the MitoSOX™ Red mitochondrial superoxide indicator for live-cell imaging (Molecular Probes). […] The red fluorescent signal was measured with ImageJ software and normalized to the brightfield signal.

[3] = system: neonatal rat ventricular myocytes (NRVMs); assay: Western blot of protein expression in siRNA-transfected NRVMs with or without aldosterone
Description: Total proteins were extracted from tissues and NRVMs with the T-PER lysis buffer (Thermo Scientific) supplemented with the Halt Protease and Phosphatase Inhibitor Cocktail (Thermo Scientific). Protein extraction from mouse tissues was performed using a BeadBug Benchtop Homogenizer and zirconium beads (Sigma). Protein quantification was performed with the BCA reagent (Pierce). Total protein samples were resolved on NuPAGE 4-12% Bis-Tris gradient gels (Invitrogen) and transferred to 0.2 μm Nitrocellulose membranes (Biorad) for immunoblotting. Membranes were stained with the LI-COR Revert Total Protein Stain kit and analyzed as per manufacturer's instructions. Membranes were blocked and then incubated with primary antibodies as detailed in Table 2 at 4° C. overnight. Membranes were then washed and incubated with the appropriate LI-COR secondary antibody. Membranes were imaged using the ODYSSEY-Classic infrared system from LI-COR. Protein expression was normalized to total protein.
(§2) Neonatal Sprague-Dawley rats were euthanized by decapitation within the first 24 h after birth and beating hearts heart fragments were rinsed in 1×PBS without pen/strep and digested in 0.1% Trypsin solution in 1×PBS (0.8 ml of 0.1% Trypsin solution per heart) for 15 min at 37° C. The supernatant was collected and the remaining tissue was further digested repeatedly for a total of 10 times, with serial collection of supernatant. Digestion was stopped on ice with 10% FBS, and cells were collected from pooled supernatant by centrifugation at 1500 rpm for 5 min at room temperature. The cell pellet was resuspended in an adequate volume of complete medium. Cells were counted and plated in 10 cm dishes for ˜1 h at 37° C., 5% CO2 at a density of 10×10^6 cells per plate (pre-plating). During this pre-plating step, non-myocytes including fibroblasts adhere to the plate, while NRVMs remain in suspension. The supernatant cells were subsequently seeded on protamine sulfate coated dishes (10^5 cells/cm^2) and were left to attach for 12 h. NRVM primary cultures were maintained in MEM medium supplemented with 10% FBS, penicillin (100 units/ml)/streptomycin (100 μg/ml) (Gibco-Fisher Scientific). 1-β-D-Arabinofuranosyl-cytosine (AraC 20 μM, Calbiochem-Sigma) was also added to the culture medium to inhibit fibroblast proliferation.
as §1

[4] = system: neonatal rat ventricular myocytes (NRVMs); assay: MTT assay of cell viability
Description: To assess NRVM viability, the Vybrant MTT cell proliferation assay kit was used (Molecular probes). Initially, NRVM were seeded on 96-well plates at ˜3×10^4 cells/well (˜10^5 cells/cm^2, the same density as in other assays) and were treated identically as in the siRNA transfection assays (including transfection, serum starvation and neurohormonal stimulation). In addition, increasing number of cells ranging from 2×10^4 to 14×10^4 were used to create a standard curve and to calculate the linearity between absorbance at 595 nm and cell number. Prior to labelling with MTT, the medium was removed and 100 μl of fresh medium was added to each well. The same amount of medium (100 μl) without cells was used as negative control (blank). The cells and the negative control were labeled with 10 μl of 12 mM MTT/well and were incubated at 37° C. for 4 h. Subsequently, 100 μl of SDS-HCL solution was added to each well, mixed thoroughly and incubated for 4 h at 37° C. Finally, the absorbance at 595 nm was measured on a plate reader and the % of cell viability was calculated using the formula:
% of viability=(A595sample/A595reference)×100

[5] = system: neonatal rat ventricular myocytes (NRVMs); assay: RT-qPCR of transcript expression in siRNA-transfected NRVMs with or without aldosterone
Description: Total RNA were extracted from human and mouse tissues and cultured neonatal rat ventricular myocytes (NRVMs) using the Tissue RNA Purification Kit (Norgen Biotek) and the TRIzol reagent (Invitrogen) respectively, according to the manufacturer's instructions. RNA was quantified with the NanoDrop-2000c instrument (Thermo Scientific), and cDNA synthesis was performed with iScript reverse transcription Supermix (BioRad). Quantitative RT-PCR was performed on a CFX96 thermal cycler using the iTac Universal SYBR green Supermix (Biorad) and specific primers. Gene expression was normalized to Rps13, and relative mRNA expression was quantified using the ΔΔCt method. For data robustness and reproducibility, target genes were also normalized to Rps15.
as §2
as §1, with “After ˜12 h of serum-starvation, the cells were incubated with aldosterone (250 μg/ml) in serum-free DMEM:F12 culture medium for 48 h at 37° C., 5% Ca.” left out

[6] = NRVMs, si-Wipi1 vs si-scramble, with or without aldosterone
[7] = aldosterone 48 h, si-scramble control NRVMs, serum starved

How did the LC3-II/I ratio [1] turn out when `CO/C1=C\C(C)=C\[C@@H](C)[C@@H](O)[C@@H](C)C/C(C)=C/C=C/[C@H](OC)[C@@H]([C@@H](C)[C@@H](O)[C@H](C)[C@@]2(O)C[C@@H](O)[C@H](C)[C@@H](C(C)C)O2)OC1=O` [BafA, bafilomycin A] was run?
Its LC3-II/I ratio is “increased”.

For `C[C@]12CCC(=O)C=C1CC[C@@H]1[C@@H]2[C@@H](O)C[C@]2(C=O)[C@@H](C(=O)CO)CC[C@@H]12` [aldosterone], which mitochondrial superoxide levels [2] is on record?
Its mitochondrial superoxide levels is “increased”.

What about the Hspb6 protein expression [3, 6] of the same compound?
Its Hspb6 protein expression is “consistent with transcript data”.

And the “Snap47 or Prdx5 protein expression” value [3, 6]?
The value was “Neither silencing Wipi1 nor stimulation with aldosterone affected”.

And the Ser16-HSPB6 phosphorylation ([3]; aldosterone 48 h, si-scramble NRVMs, serum starved)?
The Ser16-HSPB6 phosphorylation was “did decrease”.

What about the BECN1 expression [3, 7] of the same compound?
The BECN1 expression was “did not affect”.

And the LC3-lipidation [3, 7]?
Its LC3-lipidation is “did not affect”.

And the Map4 protein expression ([3]; aldosterone, si-scramble control NRVMs)?
Its Map4 protein expression is “did induce”.

What about the cell viability [4] of the same compound?
Its cell viability is “Neither aldosterone stimulation nor silencing Wipi1 negatively impacted”.

What about the “Snap47 or Prdx5 transcript expression” value [5, 6] of the same compound?
Its value is “Neither silencing Wipi1 nor stimulation with aldosterone affected”.

What about the Map4 transcript levels ([5]; aldosterone stimulation, in either si-Wipi1 or si-scramble NRVMs) of the same compound?
The Map4 transcript levels was “did not affect”.

And the Hspb6 transcript expression ([5]; aldosterone, both si-Wipi1 and si-scramble NRVMs)?
Its Hspb6 transcript expression is “stimulated”.

And the “expression of Nppa, Nppb, Acta1, and Myh7 (fetal gene program)” value ([5]; si-scramble control NRVMs, Aldo 1 μM 48 h)?
The value was “significantly increased”.
